Assay results: article PMC5218480 (PLoS ONE, 2017)

System: MV-4-11 cells
Test: Gene expression microarray analysis (Affymetrix PrimeView) and GSEA
Format: cell-based, human
Design: RFU PODN (11730768_x_at) / Fold change /veh PODN (11730768_x_at) / RFU LINC00158 (11744669_a_at) / Fold change /veh LINC00158 (11744669_a_at) / RFU DUSP10 (11751237_a_at) / Fold change /veh DUSP10 (11751237_a_at) / RFU ID3 (11757404_x_at) / Fold change /veh ID3 (11757404_x_at) / RFU PLEKHG5 (11737974_s_at) / Fold change /veh PLEKHG5 (11737974_s_at) / RFU LRRC4B (11730491_at) / Fold change /veh LRRC4B (11730491_at) / RFU GIMAP4 (11747438_a_at) / Fold change /veh GIMAP4 (11747438_a_at) / RFU KRT8 (11758183_x_at) / Fold change /veh KRT8 (11758183_x_at) / RFU CNN1 (11734310_a_at) / Fold change /veh CNN1 (11734310_a_at) / RFU VPS37D (11726825_at) / Fold change /veh VPS37D (11726825_at) / RFU C10orf10 (11716522_x_at) / Fold change /veh C10orf10 (11716522_x_at) / RFU KIR2DL2 /// KIR2DL4 /// KIR2DL5A /// KIR2DL5B /// KIR2DS1 /// KIR2DS2 /// KIR2DS3 /// KIR2DS4 /// KIR3DL3 /// KIR3DL3 /// KIR3DS1 (11738374_at) / Fold change /veh KIR2DL2 /// KIR2DL4 /// KIR2DL5A /// KIR2DL5B /// KIR2DS1 /// KIR2DS2 /// KIR2DS3 /// KIR2DS4 /// KIR3DL3 /// KIR3DL3 /// KIR3DS1 (11738374_at) / RFU C1QL1 (11718748_at) / Fold change /veh C1QL1 (11718748_at) / RFU TMPRSS4 (11747572_a_at) / Fold change /veh TMPRSS4 (11747572_a_at) / RFU HAMP (11756126_x_at) / Fold change /veh HAMP (11756126_x_at) / RFU RNFT2 (11725882_a_at) / Fold change /veh RNFT2 (11725882_a_at) / RFU NR4A2 (11747474_a_at) / Fold change /veh NR4A2 (11747474_a_at) / RFU ABCC12 (11746883_a_at) / Fold change /veh ABCC12 (11746883_a_at) / RFU TMEM136 (11760407_x_at) / Fold change /veh TMEM136 (11760407_x_at) / RFU CLDN22 /// WWC2 (11732394_at) / Fold change /veh CLDN22 /// WWC2 (11732394_at) / RFU HLA-DPB1 (11760878_x_at) / Fold change /veh HLA-DPB1 (11760878_x_at) / RFU SPINT1 (11716480_a_at) / Fold change /veh SPINT1 (11716480_a_at) / RFU GAP43 (11754022_s_at) / Fold change /veh GAP43 (11754022_s_at) / RFU A4GNT (11735810_at) / Fold change /veh A4GNT (11735810_at) / RFU PRB3 (11715151_x_at) / Fold change /veh PRB3 (11715151_x_at) / RFU TUBB4B (11761932_at) / Fold change /veh TUBB4B (11761932_at) / RFU CAPN14 (11732068_a_at) / Fold change /veh CAPN14 (11732068_a_at) / RFU TMCC2 (11721928_a_at) / Fold change /veh TMCC2 (11721928_a_at) / RFU IRGQ (11745062_a_at) / Fold change /veh IRGQ (11745062_a_at) / RFU FAM174B (11720279_a_at) / Fold change /veh FAM174B (11720279_a_at) / RFU TMPRSS4 (11748680_a_at) / Fold change /veh TMPRSS4 (11748680_a_at) / RFU FAM212B (11763350_a_at) / Fold change /veh FAM212B (11763350_a_at) / RFU PLEKHG5 (11743358_a_at) / Fold change /veh PLEKHG5 (11743358_a_at) / RFU ZSCAN30 (11745921_a_at) / Fold change /veh ZSCAN30 (11745921_a_at) / RFU CMKLR1 (11741424_a_at) / Fold change /veh CMKLR1 (11741424_a_at) / RFU LOC101060620 /// MAPK8IP1 (11723275_at) / Fold change /veh LOC101060620 /// MAPK8IP1 (11723275_at) / RFU SPTSSB (11747773_x_at) / Fold change /veh SPTSSB (11747773_x_at) / RFU PRSS12 (11739890_at) / Fold change /veh PRSS12 (11739890_at) / RFU BIN1 (11741810_x_at) / Fold change /veh BIN1 (11741810_x_at) / RFU WNT11 (11732464_a_at) / Fold change /veh WNT11 (11732464_a_at) / RFU C10orf10 (11716521_a_at) / Fold change /veh C10orf10 (11716521_a_at) / RFU C5orf56 (11738089_at) / Fold change /veh C5orf56 (11738089_at) / RFU CYB561 (11721691_x_at) / Fold change /veh CYB561 (11721691_x_at) / RFU ANKRD19P (11752326_a_at) / Fold change /veh ANKRD19P (11752326_a_at) / RFU OR2T12 /// OR2T33 /// OR2T8 (11738714_s_at) / Fold change /veh OR2T12 /// OR2T33 /// OR2T8 (11738714_s_at) / RFU VCAN (11748164_a_at) / Fold change /veh VCAN (11748164_a_at) / RFU JSRP1 (11732532_at) / Fold change /veh JSRP1 (11732532_at) / RFU KRTAP10-11 (11738290_x_at) / Fold change /veh KRTAP10-11 (11738290_x_at) / RFU MYO3A (11730013_a_at) / Fold change /veh MYO3A (11730013_a_at) / RFU EBF3 (11725865_a_at) / Fold change /veh EBF3 (11725865_a_at) / RFU CAMK2N1 (11719241_x_at) / Fold change /veh CAMK2N1 (11719241_x_at) / RFU C5orf56 (11738088_a_at) / Fold change /veh C5orf56 (11738088_a_at) / RFU OLFML3 (11715873_a_at) / Fold change /veh OLFML3 (11715873_a_at) / RFU LOC100653217 /// NTM (11731650_a_at) / Fold change /veh LOC100653217 /// NTM (11731650_a_at) / RFU MAPK11 (11762145_a_at) / Fold change /veh MAPK11 (11762145_a_at) / RFU FIZ1 (11724087_x_at) / Fold change /veh FIZ1 (11724087_x_at) / RFU OASL (11726364_x_at) / Fold change /veh OASL (11726364_x_at) / RFU SOX15 (11748057_x_at) / Fold change /veh SOX15 (11748057_x_at) / RFU CD79A (11719716_a_at) / Fold change /veh CD79A (11719716_a_at) / RFU HIST1H1D (11736915_at) / Fold change /veh HIST1H1D (11736915_at) / RFU CASKIN2 (11723855_a_at) / Fold change /veh CASKIN2 (11723855_a_at) / RFU LOC730098 (11760151_x_at) / Fold change /veh LOC730098 (11760151_x_at) / RFU OR4N2 (11742367_at) / Fold change /veh OR4N2 (11742367_at) / RFU PRRT2 (11749266_a_at) / Fold change /veh PRRT2 (11749266_a_at) / RFU SNX32 (11753110_a_at) / Fold change /veh SNX32 (11753110_a_at) / RFU CDHR5 (11726645_a_at) / Fold change /veh CDHR5 (11726645_a_at) / RFU RCAN1 (11760418_a_at) / Fold change /veh RCAN1 (11760418_a_at) / RFU FAM167A (11723789_a_at) / Fold change /veh FAM167A (11723789_a_at) / RFU FAM26E (11764081_at) / Fold change /veh FAM26E (11764081_at) / RFU ISYNA1 (11749810_s_at) / Fold change /veh ISYNA1 (11749810_s_at) / RFU ACY1 (11761880_at) / Fold change /veh ACY1 (11761880_at) / RFU 11764098_at / Fold change /veh 11764098_at / RFU SAMD14 (11745864_x_at) / Fold change /veh SAMD14 (11745864_x_at) / RFU NPB (11741838_a_at) / Fold change /veh NPB (11741838_a_at) / RFU TMPRSS6 (11731388_a_at) / Fold change /veh TMPRSS6 (11731388_a_at) / RFU KRTAP10-2 (11738614_at) / Fold change /veh KRTAP10-2 (11738614_at) / RFU ARHGAP8 /// PRR5-ARHGAP8 (11727945_x_at) / Fold change /veh ARHGAP8 /// PRR5-ARHGAP8 (11727945_x_at) / RFU KRTAP5-7 /// NADSYN1 (11734609_at) / Fold change /veh KRTAP5-7 /// NADSYN1 (11734609_at) / RFU RASL12 (11751679_a_at) / Fold change /veh RASL12 (11751679_a_at) / RFU CDKN2B (11736163_a_at) / Fold change /veh CDKN2B (11736163_a_at) / RFU PRF1 (11729649_at) / Fold change /veh PRF1 (11729649_at) / RFU, ZNF638 /// ZNF638-IT1 / Fold change vs veh, ZNF638 /// ZNF638-IT1 / RFU, PANK3 / Fold change vs veh, PANK3 / RFU, SH3YL1 / Fold change vs veh, SH3YL1 / RFU, ZEB2 / Fold change vs veh, ZEB2 / RFU, NRIP1 / Fold change vs veh, NRIP1 / RFU, PTTG1IP / Fold change vs veh, PTTG1IP / RFU, CAPN2 / Fold change vs veh, CAPN2 / RFU, MED14 / Fold change vs veh, MED14 / RFU, SNORA58 / Fold change vs veh, SNORA58 / RFU, C1orf63 / Fold change vs veh, C1orf63 / RFU, LRRFIP1 / Fold change vs veh, LRRFIP1 / RFU, NDUFAF7 / Fold change vs veh, NDUFAF7 / RFU, SLC12A2 / Fold change vs veh, SLC12A2 / RFU, IBTK / Fold change vs veh, IBTK / RFU, ESF1 / Fold change vs veh, ESF1 / Fold change vs veh, TMEM50B / RFU, TAOK1 / Fold change vs veh, TAOK1 / RFU, ACBD3 / Fold change vs veh, ACBD3 / RFU, TMA16 / Fold change vs veh, TMA16 / RFU, RWDD3 / Fold change vs veh, RWDD3 / RFU, BCAT1 / Fold change vs veh, BCAT1 / RFU, EDEM3 / Fold change vs veh, EDEM3 / RFU, TMEM33 / Fold change vs veh, TMEM33 / RFU, WDR75 / Fold change vs veh, WDR75 / RFU, AHCTF1 / Fold change vs veh, AHCTF1 / RFU, TFRC / Fold change vs veh, TFRC / RFU, ZDHHC17 / Fold change vs veh, ZDHHC17 / RFU, NOM1 / Fold change vs veh, NOM1 / RFU, ARL8B / Fold change vs veh, ARL8B / RFU, ZBTB11 / Fold change vs veh, ZBTB11 / RFU, TAMM41 / Fold change vs veh, TAMM41 / RFU, KIAA1704 /// LOC100996395 / Fold change vs veh, KIAA1704 /// LOC100996395 / RFU, ING1 / Fold change vs veh, ING1 / RFU, TRMT61B / Fold change vs veh, TRMT61B / RFU, FUBP3 / Fold change vs veh, FUBP3 / RFU, TP53 / Fold change vs veh, TP53 / RFU, TNKS2 / Fold change vs veh, TNKS2 / RFU, ZFP14 / Fold change vs veh, ZFP14 / RFU, ACTR2 / Fold change vs veh, ACTR2 / RFU, PPP3R1 / Fold change vs veh, PPP3R1 / RFU, PIK3R1 / Fold change vs veh, PIK3R1 / RFU, HNRNPA1 / Fold change vs veh, HNRNPA1 / RFU, RNF170 / Fold change vs veh, RNF170 / RFU, ZNF28 / Fold change vs veh, ZNF28 / RFU, RNGTT / Fold change vs veh, RNGTT / RFU, OGT / Fold change vs veh, OGT / RFU, BRD1 / Fold change vs veh, BRD1 / RFU, MARS / Fold change vs veh, MARS / RFU, ZNF655 / Fold change vs veh, ZNF655 / RFU, FAHD1 / Fold change vs veh, FAHD1 / RFU, BDP1 / Fold change vs veh, BDP1 / RFU, LRRCC1 / Fold change vs veh, LRRCC1 / RFU, ARID1A / Fold change vs veh, ARID1A / RFU, ZNF146 / Fold change vs veh, ZNF146 / RFU, ZNF330 / Fold change vs veh, ZNF330 / RFU, GPN3 / Fold change vs veh, GPN3 / RFU, C9orf123 / Fold change vs veh, C9orf123 / RFU, N4BP2L2 / Fold change vs veh, N4BP2L2 / RFU, ARFIP1 / Fold change vs veh, ARFIP1 / RFU, FAM179B / Fold change vs veh, FAM179B / RFU, BCL10 / Fold change vs veh, BCL10 / RFU, UHRF1BP1L / Fold change vs veh, UHRF1BP1L / RFU, BET1 / Fold change vs veh, BET1 / RFU, CNOT2 / Fold change vs veh, CNOT2 / RFU, ZNF268 / Fold change vs veh, ZNF268 / Fold change vs veh, ZNF507 / RFU, DGCR2 / Fold change vs veh, DGCR2 / RFU, WDSUB1 / Fold change vs veh, WDSUB1 / Fold change vs veh, HSP90B1 /// MIR3652 / RFU, ADSS / Fold change vs veh, ADSS / RFU, GK / Fold change vs veh, GK / RFU, ZNF148 / Fold change vs veh, ZNF148 / RFU, TAF9 / Fold change vs veh, TAF9 / RFU, SLC1A5 / Fold change vs veh, SLC1A5 / RFU, SLMO2 / Fold change vs veh, SLMO2 / RFU, ABCC4 / Fold change vs veh, ABCC4 / RFU, LOC101060439 /// RAP1B / Fold change vs veh, LOC101060439 /// RAP1B / RFU, RFX7 / Fold change vs veh, RFX7 / RFU, GTPBP10 / Fold change vs veh, GTPBP10 / RFU, CNEP1R1 / Fold change vs veh, CNEP1R1 / RFU, BIVM-ERCC5 /// ERCC5 / Fold change vs veh, BIVM-ERCC5 /// ERCC5 / RFU, ILF3 / Fold change vs veh, ILF3 / RFU 11762660_at / Fold change /veh 11762660_at / RFU VCAN (11757783_s_at) / Fold change /veh VCAN (11757783_s_at) / RFU DDX43 (11728927_at) / Fold change /veh DDX43 (11728927_at) / RFU KRT8 (11758188_x_at) / Fold change /veh KRT8 (11758188_x_at) / RFU NKD1 (11759106_at) / Fold change /veh NKD1 (11759106_at) / RFU SRD5A1 (11742802_a_at) / Fold change /veh SRD5A1 (11742802_a_at) / RFU TPSAB1 /// TPSB2 (11721975_s_at) / Fold change /veh TPSAB1 /// TPSB2 (11721975_s_at) / RFU GSTM3 (11746129_a_at) / Fold change /veh GSTM3 (11746129_a_at) / RFU IL23R (11737362_x_at) / Fold change /veh IL23R (11737362_x_at) / RFU TMEM51 (11727254_a_at) / Fold change /veh TMEM51 (11727254_a_at) / RFU PIWIL2 (11732686_x_at) / Fold change /veh PIWIL2 (11732686_x_at) / RFU ORM1 (11744905_x_at) / Fold change /veh ORM1 (11744905_x_at) / RFU CCDC152 (11743942_at) / Fold change /veh CCDC152 (11743942_at) / RFU ECM1 (11717891_a_at) / Fold change /veh ECM1 (11717891_a_at) / RFU IL23R (11748794_a_at) / Fold change /veh IL23R (11748794_a_at) / RFU TNFAIP8L3 (11732012_x_at) / Fold change /veh TNFAIP8L3 (11732012_x_at) / RFU MBOAT4 (11741988_at) / Fold change /veh MBOAT4 (11741988_at) / RFU 11764193_at / Fold change /veh 11764193_at / RFU TMEM53 (11763286_at) / Fold change /veh TMEM53 (11763286_at) / RFU MAGEB2 (11727129_at) / Fold change /veh MAGEB2 (11727129_at) / RFU TMEM200A (11744735_a_at) / Fold change /veh TMEM200A (11744735_a_at) / RFU CCDC152 (11751479_a_at) / Fold change /veh CCDC152 (11751479_a_at) / RFU FAM211A (11726209_a_at) / Fold change /veh FAM211A (11726209_a_at) / RFU RGS16 (11746705_a_at) / Fold change /veh RGS16 (11746705_a_at) / RFU VCAN (11755009_s_at) / Fold change /veh VCAN (11755009_s_at) / RFU RHOB (11743442_s_at) / Fold change /veh RHOB (11743442_s_at) / RFU RGS16 (11720943_a_at) / Fold change /veh RGS16 (11720943_a_at) / RFU RGS16 (11720944_at) / Fold change /veh RGS16 (11720944_at) / RFU, VPS4B / Fold change vs veh, VPS4B / RFU, CREB1 / Fold change vs veh, CREB1 / RFU, DNAJC13 / Fold change vs veh, DNAJC13 / RFU, GNAQ / Fold change vs veh, GNAQ / RFU, CDK5R1 / Fold change vs veh, CDK5R1 / RFU, ZRANB3 / Fold change vs veh, ZRANB3 / RFU, CUL4A / Fold change vs veh, CUL4A / RFU, CCNY / Fold change vs veh, CCNY / RFU, UFL1 / Fold change vs veh, UFL1 / RFU, COG3 / Fold change vs veh, COG3 / RFU, DIAPH2 / Fold change vs veh, DIAPH2 / RFU, SKA2 / Fold change vs veh, SKA2 / RFU, AFF3 / Fold change vs veh, AFF3 / RFU, LMF1 / Fold change vs veh, LMF1 / RFU, IPO11 / Fold change vs veh, IPO11 / RFU, DFFB / Fold change vs veh, DFFB / RFU, FOXP1 / Fold change vs veh, FOXP1 / RFU, CARD8 / Fold change vs veh, CARD8 / RFU, STRN3 / Fold change vs veh, STRN3 / RFU, ADK / Fold change vs veh, ADK / RFU, RASSF2 / Fold change vs veh, RASSF2 / RFU, WIPF1 / Fold change vs veh, WIPF1 / RFU, LARP1B / Fold change vs veh, LARP1B / RFU, RASA1 / Fold change vs veh, RASA1 / RFU, RB1 / Fold change vs veh, RB1 / RFU, PPFIA1 / Fold change vs veh, PPFIA1 / RFU, MAT2A / Fold change vs veh, MAT2A / RFU, CCT5 / Fold change vs veh, CCT5 / RFU, WDR92 / Fold change vs veh, WDR92 / RFU, CUX1 / Fold change vs veh, CUX1 / RFU, TTC7A / Fold change vs veh, TTC7A / RFU, TMEM135 / Fold change vs veh, TMEM135 / RFU, DEPTOR / Fold change vs veh, DEPTOR / RFU, CPM / Fold change vs veh, CPM / RFU, DNAJB6 / Fold change vs veh, DNAJB6 / RFU, CACNA2D3 / Fold change vs veh, CACNA2D3 / RFU, DTX4 / Fold change vs veh, DTX4 / RFU, TFCP2 / Fold change vs veh, TFCP2 / RFU, GMCL1 /// GMCL1P1 / Fold change vs veh, GMCL1 /// GMCL1P1 / RFU, AEBP2 / Fold change vs veh, AEBP2 / RFU, SNHG1 /// SNORD22 /// SNORD25 /// SNORD26 /// SNORD27 /// SNORD28 /// SNORD29 /// SNORD31 / Fold change vs veh, SNHG1 /// SNORD22 /// SNORD25 /// SNORD26 /// SNORD27 /// SNORD28 /// SNORD29 /// SNORD31 / Fold change (Aza/veh), C12orf56 (ProbeSet 11735607_a_at) / Fold change (ACY-1035/veh), C12orf56 (ProbeSet 11735607_a_at) / Fold change (Aza/veh), FGFR1OP (ProbeSet 11751329_s_at) / Fold change (ACY-1035/veh), FGFR1OP (ProbeSet 11751329_s_at) / Fold change (Aza/veh), VPS36 (ProbeSet 11739960_a_at) / Fold change (ACY-1035/veh), VPS36 (ProbeSet 11739960_a_at) / RFU SYPL1 (11715823_x_at) / Fold change /veh SYPL1 (11715823_x_at) / RFU IGFBP7 (11715501_s_at) / Fold change /veh IGFBP7 (11715501_s_at) / RFU REEP3 (11722064_at) / Fold change /veh REEP3 (11722064_at) / RFU IGLL1 (11728026_x_at) / Fold change /veh IGLL1 (11728026_x_at): dose or concentration left out as unconfirmed
Details: ProbeSet 11732277_a_at; LIST D

In the case of `Nc1ccc(-c2cccs2)cc1NC(=O)c1ccc2c(c1)cc(C1CC1)n2CCN1CCOCC1` [ACY-1035], the “RFU, FOXP1” value is reported as 575.26 RFU.
